Our source for the Ki values is patent US20260193293A1, “PEPTIDES CAPABLE OF INHIBITING PROTEIN-PROTEIN INTERACTIONS AT GABAB1A SUBUNIT AND USES THEREOF” (UNIVERSITY OF COPENHAGEN, priority 2022, published 2026).

Non-standard residues stand in square brackets, D forms with d. Residues, ends and D or L forms follow the SMILES beside them. Sar = CNCC(=O)O

One experiment deals with Sushi domains (SD1/2) protein. Nature of the experiment: Fluorescence polarization (FP) competition assay with AJAP-1probe, calculated Ki. The class given is binding. Particulars: Table 6, elongation and truncation scan of PIANP binding epitope; read-out: Ki (nM) mean ± SEM. The essentials:
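Competition against 25 nM TAMRA-labelled peptide probe binding SD1/2, in PBS pH 7.4 with 1% BSA at rt, read at 530/580 nm. IC50 from sigmoidal dose-response fits, at least triplicate; Ki calculated from IC50 using probe Kd from saturation binding.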
What is called Ki is the equilibrium dissociation constant of an inhibitor or competing ligand from its target. Turning to `CC[C@H](C)[C@H](NC(=O)[C@H](C)NC(=O)[C@H](Cc1c[nH]c2ccccc12)NC(=O)[C@@H]1CCCN1C(C)=O)C(=O)N[C@H](C(=O)N[C@@H](Cc1c[nH]c2ccccc12)C(=O)NCC(N)=O)C(C)C` [PWAIVWG] (Ac-PWAIVWG-NH2), the Ki is 579 ± 21 nM.

For the molecule `CC[C@H](C)[C@H](NC(=O)[C@H](C)NC(=O)[C@H](Cc1c[nH]c2ccccc12)NC(=O)[C@@H]1CCCN1C(C)=O)C(=O)N[C@H](C(=O)N[C@@H](Cc1c[nH]c2ccccc12)C(N)=O)C(C)C` [PWAIVW] (Ac-PWAIVW-NH2), the inhibition constant (Ki) is 706 ± 16 nM.

The same experiment, now with this note: Table 9, Ala-, D-amino acids and N-methylation scans of PIANPWT; read-out: Ki (nM) mean ± SEM.
In the case of `CC[C@H](C)[C@H](NC(=O)[C@H](C)NC(=O)[C@H](Cc1c[nH]c2ccccc12)NC(=O)[C@@H]1CCCN1C(C)=O)C(=O)N[C@H](C(=O)N[C@@H](Cc1c[nH]c2ccccc12)C(=O)N(C)CC(=O)N1CCC[C@H]1C(=O)N[C@H](C(=O)N[C@H](C(=O)N[C@@H](CO)C(=O)N[C@@H](CCCNC(=N)N)C(=O)N[C@@H](CCC(=O)O)C(=O)N[C@@H](CC(=O)O)C(N)=O)C(C)C)[C@@H](C)O)C(C)C` [PWAIVW(N-Me-G)PTVSRED] (Ac-PWAIVW[Sar]PTVSRED-NH2), the Ki is 58300 ± 4410 nM.

For the molecule `CC[C@H](C)[C@H](NC(=O)[C@H](C)NC(=O)[C@H](Cc1c[nH]c2ccccc12)NC(=O)[C@@H]1CCCN1C(C)=O)C(=O)N[C@H](C(=O)N[C@@H](Cc1c[nH]c2ccccc12)C(=O)NCC(=O)N(C)CC(=O)N[C@H](C(=O)N[C@H](C(=O)N[C@@H](CO)C(=O)N[C@@H](CCCNC(=N)N)C(=O)N[C@@H](CCC(=O)O)C(=O)N[C@@H](CC(=O)O)C(N)=O)C(C)C)[C@@H](C)O)C(C)C` [PWAIVWG(N-Me-G)TVSRED] (Ac-PWAIVWG[Sar]TVSRED-NH2), the Ki is 525 ± 22 nM.

`CC[C@H](C)[C@H](NC(=O)[C@H](C)NC(=O)[C@H](Cc1c[nH]c2ccccc12)NC(=O)[C@@H]1CCCN1C(C)=O)C(=O)N[C@H](C(=O)N[C@@H](Cc1c[nH]c2ccccc12)C(=O)NCC(=O)N[C@@H](C)C(=O)N[C@H](C(=O)N[C@H](C(=O)N[C@@H](CO)C(=O)N[C@@H](CCCNC(=N)N)C(=O)N[C@@H](CCC(=O)O)C(=O)N[C@@H](CC(=O)O)C(N)=O)C(C)C)[C@@H](C)O)C(C)C` [PWAIVWGATVSRED] (Ac-PWAIVWGATVSRED-NH2): the Ki was 1500 ± 34 nM.

In the case of `CC[C@H](C)[C@H](NC(=O)[C@H](C)NC(=O)[C@H](Cc1c[nH]c2ccccc12)NC(=O)[C@@H]1CCCN1C(C)=O)C(=O)N[C@H](C(=O)N[C@@H](Cc1c[nH]c2ccccc12)C(=O)NCC(=O)N1CCC[C@H]1C(=O)N[C@@H](C)C(=O)N[C@H](C(=O)N[C@@H](CO)C(=O)N[C@@H](CCCNC(=N)N)C(=O)N[C@@H](CCC(=O)O)C(=O)N[C@@H](CC(=O)O)C(N)=O)C(C)C)C(C)C` [PWAIVWGPAVSRED] (Ac-PWAIVWGPAVSRED-NH2), the Ki was 1030 ± 26 nM.

As to `CC[C@H](C)[C@H](NC(=O)[C@H](C)NC(=O)[C@H](Cc1c[nH]c2ccccc12)NC(=O)[C@@H]1CCCN1C(C)=O)C(=O)N[C@H](C(=O)N[C@@H](Cc1c[nH]c2ccccc12)C(=O)NCC(=O)N1CCC[C@H]1C(=O)N[C@H](C(=O)N[C@@H](C)C(=O)N[C@@H](CO)C(=O)N[C@@H](CCCNC(=N)N)C(=O)N[C@@H](CCC(=O)O)C(=O)N[C@@H](CC(=O)O)C(N)=O)[C@@H](C)O)C(C)C` [PWAIVWGPTASRED] (Ac-PWAIVWGPTASRED-NH2), the Ki is 318 ± 3 nM.

For the molecule `CC[C@H](C)[C@H](NC(=O)[C@H](C)NC(=O)[C@H](Cc1c[nH]c2ccccc12)NC(=O)[C@@H]1CCCN1C(C)=O)C(=O)N[C@H](C(=O)N[C@@H](Cc1c[nH]c2ccccc12)C(=O)NCC(=O)N1CCC[C@H]1C(=O)N[C@H](C(=O)N[C@H](C(=O)N[C@@H](C)C(=O)N[C@@H](CCCNC(=N)N)C(=O)N[C@@H](CCC(=O)O)C(=O)N[C@@H](CC(=O)O)C(N)=O)C(C)C)[C@@H](C)O)C(C)C` [PWAIVWGPTVARED] (Ac-PWAIVWGPTVARED-NH2), the Ki is 480 ± 4 nM.

Take `CC[C@H](C)[C@H](NC(=O)[C@H](C)NC(=O)[C@H](Cc1c[nH]c2ccccc12)NC(=O)[C@@H]1CCCN1C(C)=O)C(=O)N[C@H](C(=O)N[C@@H](Cc1c[nH]c2ccccc12)C(=O)NCC(=O)N1CCC[C@H]1C(=O)N[C@H](C(=O)N[C@H](C(=O)N[C@@H](CO)C(=O)N[C@@H](C)C(=O)N[C@@H](CCC(=O)O)C(=O)N[C@@H](CC(=O)O)C(N)=O)C(C)C)[C@@H](C)O)C(C)C` [PWAIVWGPTVSAED] (Ac-PWAIVWGPTVSAED-NH2): the Ki is 341 ± 7 nM.

The same experiment, now with this note: Table 9, cells printed in μM; read-out: Ki (nM) mean ± SEM.
With `CC[C@H](C)[C@H](NC(=O)[C@H](C)NC(=O)[C@H](Cc1c[nH]c2ccccc12)NC(=O)[C@@H]1CCCN1C(C)=O)C(=O)N[C@H](C(=O)N[C@@H](C)C(=O)NCC(=O)N1CCC[C@H]1C(=O)N[C@H](C(=O)N[C@H](C(=O)N[C@@H](CO)C(=O)N[C@@H](CCCNC(=N)N)C(=O)N[C@@H](CCC(=O)O)C(=O)N[C@@H](CC(=O)O)C(N)=O)C(C)C)[C@@H](C)O)C(C)C` [PWAIVAGPTVSRED] (Ac-PWAIVAGPTVSRED-NH2), the inhibitory constant (Ki) is above 62500 nM.

Staying with this experiment, now noted: Table 12, deep mutational scanning validation variants of PIANPWT; read-out: Ki (nM) mean ± SEM.
Consider `CC[C@H](C)[C@H](NC(=O)[C@H](C)NC(=O)[C@H](Cc1c[nH]c2ccccc12)NC(=O)[C@@H]1CCCN1C(C)=O)C(=O)N[C@H](C(=O)N[C@@H](Cc1c[nH]c2ccccc12)C(=O)NCC(=O)N1CCC[C@H]1C(=O)N[C@H](C(=O)N[C@@H](CC(=O)O)C(=O)N[C@@H](CO)C(=O)N[C@@H](CCCNC(=N)N)C(=O)N[C@@H](CCC(=O)O)C(=O)N[C@@H](CC(=O)O)C(N)=O)[C@@H](C)O)C(C)C` [PWAIVWGPTDSRED] (Ac-PWAIVWGPTDSRED-NH2), for which the Ki is 417 ± 6 nM.

As for `CC[C@H](C)[C@H](NC(=O)[C@H](C)NC(=O)[C@H](Cc1c[nH]c2ccccc12)NC(=O)[C@@H]1CCCN1C(C)=O)C(=O)N[C@H](C(=O)N[C@@H](Cc1c[nH]c2ccccc12)C(=O)NCC(=O)N1CCC[C@H]1C(=O)N[C@H](C(=O)N[C@@H](CO)C(=O)N[C@@H](CO)C(=O)N[C@@H](CCCNC(=N)N)C(=O)N[C@@H](CCC(=O)O)C(=O)N[C@@H](CC(=O)O)C(N)=O)[C@@H](C)O)C(C)C` [PWAIVWGPTSSRED] (Ac-PWAIVWGPTSSRED-NH2), the Ki was 383 ± 3 nM.

Regarding `CC[C@H](C)[C@H](NC(=O)[C@H](C)NC(=O)[C@H](Cc1c[nH]c2ccccc12)NC(=O)[C@@H]1CCCN1C(C)=O)C(=O)N[C@H](C(=O)N[C@@H](Cc1c[nH]c2ccccc12)C(=O)NCC(=O)N1CCC[C@H]1C(=O)N[C@H](C(=O)N[C@H](C(=O)N[C@@H](CC(=O)O)C(=O)N[C@@H](CCCNC(=N)N)C(=O)N[C@@H](CCC(=O)O)C(=O)N[C@@H](CC(=O)O)C(N)=O)C(C)C)[C@@H](C)O)C(C)C` [PWAIVWGPTVDRED] (Ac-PWAIVWGPTVDRED-NH2), the Ki is 379 ± 9 nM.

Take `CC[C@H](C)[C@H](NC(=O)[C@H](C)NC(=O)[C@H](Cc1c[nH]c2ccccc12)NC(=O)[C@@H]1CCCN1C(C)=O)C(=O)N[C@H](C(=O)N[C@@H](Cc1c[nH]c2ccccc12)C(=O)NCC(=O)N1CCC[C@H]1C(=O)N[C@H](C(=O)N[C@H](C(=O)N[C@@H](CO)C(=O)N[C@@H](CC(=O)O)C(=O)N[C@@H](CCC(=O)O)C(=O)N[C@@H](CC(=O)O)C(N)=O)C(C)C)[C@@H](C)O)C(C)C` [PWAIVWGPTVSDED] (Ac-PWAIVWGPTVSDED-NH2): the Ki is 327 ± 6 nM.

As for `CC[C@H](C)[C@H](NC(=O)[C@H](Cc1ccccc1)NC(=O)[C@H](Cc1c[nH]c2ccccc12)NC(=O)[C@@H]1CCCN1C(C)=O)C(=O)N[C@H](C(=O)N[C@@H](Cc1c[nH]c2ccccc12)C(=O)NCC(=O)N1CCC[C@H]1C(=O)N[C@H](C(=O)N[C@H](C(=O)N[C@@H](CO)C(=O)N[C@@H](CC(=O)O)C(=O)N[C@@H](CCC(=O)O)C(=O)N[C@@H](CC(=O)O)C(N)=O)C(C)C)[C@@H](C)O)C(C)C` [PWFIVWGPTVSDED] (Ac-PWFIVWGPTVSDED-NH2), the Ki was 192 ± 4 nM.

As to `CC[C@H](C)[C@H](NC(=O)[C@H](Cc1ccccc1)NC(=O)[C@H](Cc1c[nH]c2ccccc12)NC(=O)[C@@H]1CCCN1C(C)=O)C(=O)N[C@H](C(=O)N[C@@H](Cc1c[nH]c2ccccc12)C(=O)NCC(=O)N1CCC[C@H]1C(=O)N[C@H](C(=O)N[C@H](C(=O)N[C@@H](CO)C(=O)N[C@@H](CCCNC(=N)N)C(=O)N[C@@H](CCC(=O)O)C(=O)N[C@@H](CC(=O)O)C(N)=O)C(C)C)[C@@H](C)O)C(C)C` [PWFIVWGPTVSRED] (Ac-PWFIVWGPTVSRED-NH2), the inhibition constant (Ki) is 461 ± 10 nM.

Consider `CC[C@H](C)[C@H](NC(=O)[C@H](Cc1c[nH]c2ccccc12)NC(=O)[C@@H]1CCCN1C(C)=O)C(=O)N[C@H](C(=O)N[C@H](C(=O)N[C@@H](Cc1c[nH]c2ccccc12)C(=O)NCC(=O)N1CCC[C@H]1C(=O)N[C@H](C(=O)N[C@H](C(=O)N[C@@H](CO)C(=O)N[C@@H](CCCNC(=N)N)C(=O)N[C@@H](CCC(=O)O)C(=O)N[C@@H](CC(=O)O)C(N)=O)C(C)C)[C@@H](C)O)C(C)C)[C@@H](C)CC` [PWIIVWGPTVSRED], for which the Ki was 339 ± 8 nM.

In the case of `CC[C@H](C)[C@H](NC(=O)[C@@H](NC(=O)[C@H](Cc1c[nH]c2ccccc12)NC(=O)[C@@H]1CCCN1C(C)=O)C(C)C)C(=O)N[C@H](C(=O)N[C@@H](Cc1c[nH]c2ccccc12)C(=O)NCC(=O)N1CCC[C@H]1C(=O)N[C@H](C(=O)N[C@H](C(=O)N[C@@H](CO)C(=O)N[C@@H](CCCNC(=N)N)C(=O)N[C@@H](CCC(=O)O)C(=O)N[C@@H](CC(=O)O)C(N)=O)C(C)C)[C@@H](C)O)C(C)C` [PWVIVWGPTVSRED] (Ac-PWVIVWGPTVSRED-NH2), the Ki was 302 ± 4 nM.

Staying with this experiment, now noted: Table 13, peptides for affinity maturation; read-out: Ki (nM) mean ± SEM.
As to `CC[C@H](C)[C@H](NC(=O)[C@H](C)NC(=O)[C@H](Cc1c[nH]c2ccccc12)NC(=O)[C@@H]1CCCN1C(C)=O)C(=O)N[C@H](C(=O)N[C@@H](Cc1c[nH]c2ccccc12)C(=O)NCC(=O)N(C)CC(=O)N[C@H](C(=O)N[C@H](C(=O)N[C@@H](CO)C(=O)N[C@@H](CCCNC(=N)N)C(=O)N[C@@H](CCC(=O)O)C(=O)N[C@@H](CC(=O)O)C(N)=O)C(C)C)[C@@H](C)O)C(C)C` [PWAIVWG(N-Me-G)TVSRED] (Ac-PWAIVWG[Sar]TVSRED-NH2), the Ki is 525 ± 22 nM.

Regarding `CC[C@H](C)[C@H](NC(=O)[C@H](C)NC(=O)[C@H](Cc1c[nH]c2ccccc12)NC(=O)[C@@H]1CCCN1C(C)=O)C(=O)N[C@H](C(=O)N[C@@H](Cc1c[nH]c2ccccc12)C(=O)NCC(=O)N1CCC[C@H]1C(=O)N[C@H](C(=O)NCC(=O)N[C@@H](CC(=O)O)C(=O)N[C@@H](CCC(=O)O)C(=O)N[C@@H](CC(=O)O)C(N)=O)[C@@H](C)O)C(C)C` [PWAIVWGPTGDED] (Ac-PWAIVWGPTGDED-NH2), the Ki was 222 ± 1 nM.
